# How the values were obtained:
# [1] = system: P. aeruginosa; assay: Bactericidal activity assay; assay type: cell-based, Pseudomonas aeruginosa type 1
# Method in brief: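 Log-phase P. aeruginosa type 1 (smooth clinical isolate) was grown in brain heart infusion broth, washed, and diluted 1:10 from about 3×10^8 CFU/ml into 0.08M citrate phosphate buffer at pH 5.6 or pH 7.0. Peptides were tested from about […] to 4.1×10^−9M, with LD50 derived from dose response by linear regression.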
# [2] = system: HUVEC; assay: Leukocyte/EC adhesion assay; assay type: cell-based, human; conditions: bFGF 10 ng/ml + PF4 100 μg/ml
# Method: Functional impact for the observed phenomena was provided by leukocyte/EC adhesion assays as described earlier (Griffioen et al. Cancer Res. 56:1111–1117, 1996). […] TNF mediated upregulation of adhesion to bFGF preincubated HUVEC in the presence of PF4 was similar to the adhesion to TNF treated control cells. PHA-activated peripheral blood T lymphocyte were adhered for 1 hour at 37° C. to TNF-α (4 ng/ml), bFGF (10 ng/ml)+PF4 (100 μg/ml) treated, or control (HUVEC). Non-adhering cells were removed and adhered cells were enumerated by an inverted microscope. Values of one representative experiment out of three are expressed as numbers of adhered cells per high power field. Statistical significance is determined by the Student's t-test.
# [3] = system: endotoxin from E. coli 055:B5; assay: Limulus amoebocyte lysate assay (E-TOXATE), endotoxin neutralization; assay type: biochemical
# Method in brief: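 Peptide preincubated with LPS 5 min at room temperature in 1:2 pyrogen-free saline (pH 6.4), then amoebocyte lysate added (E-TOXATE kit). Neutralization of endotoxin activity scored by Limulus lysate reaction; BG38L served as positive control.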
# [4] = system: EC (endothelial cells); assay: EC proliferation, 3[H]thymidine incorporation assay; assay type: cell-based
# Method: Since the in vivo situation of tumor associated EC involves the low expression or even absence of ICAM-1, the next set of experiments aimed to study the ability to reinduce ICAM-I expression after bFBF preincubation. […] In these experiments, HUVEC were pretreated for 3 days with bFGF, subsequently PF4 was added for 3 days and, where indicated in the last 16 hours of culture 4 ng/ml TNFα was added. Human umbilical vein derived endothelial cells (HUVEC) were harvested from normal human umbilical cords by perfusion with 0.125% trypsin/EDTA as described previously. Cells were cultured in fibronectin (FN) coated tissue culture flasks in culture medium (RPMI-1640 with 20% human serum (HS), supplemented with 2 mM glutamine and 100 U/ml penicillin and 0.1 mg/ml streptomycin). Immunofluorescence using indirect PE-conjugated reagents required three separate incubations. 1×10^5 EC were fixed for 1 hour in 1% paraformaldehyde, resuspended in 20 μl appropriately diluted Mab and incubated for 1 hour on ice. Subsequently, cells were washed two times in PBS/BSA (0.1%) and incubated for another 30 minutes with biotinylated rabbit-anti-mouse Ig (Dako, Glostrup, Denmark). After another 2 washings, cells were incubated with streptavidin-phycoerythrin conjugate (Dako). Stained cells were analyzed on a FACScan flowcytometer. Data analysis was performed using PCLysys software (Becton Dickinson, Mountain View, Calif.). Statistical significance of observed differences was determined using the Student's t-test.
# EC proliferation was measured using a ^3[H]thymidine incorporation assay. EC were seeded in flatbottomed 96-well tissue culture plates (5000 cells/well) and grown for 3 days, in culture medium. In some cultures the proliferation of EC was enhanced by incubation with 10 ng/ml bFGF. During the list 6 hours of the assay, the culture was pulsed with 0.5 μCi [methyl-^3H]thymidine/well. Results are expressed as the arithmetic mean counts per minute (cpm) of triplicate cultures.
substance,measurement,setting,value
platelet factor 4 [PF4],"Bactericidal Activity, % killing","[1]; 1.2 × 10^−7 M Peptide, 5 × 105 P. aeruginosa",0%
same,"Bactericidal Activity, % killing at the effective dose",[1]; at the Ed for the same peptide,19%
same,"Bactericidal Activity, Ed, Effective M dose",[1]; dose at which the % in brackets was found,1.5 µM
same,bFGF mediated inhibition of leukocyte adhesion to cultured HUVEC (in words),[2],completely abolished
same,endotoxin neutralizing activity (in words),[3],no endotoxin neutralizing activity
same,"Endotoxin Neutralizing Activity, % neutralization","[3]; 5.0 × 10^−5 M peptide, 0.02 U (0.2 pg) endotoxin from E. coli 055:B5, Table 3",0%
same,"Endotoxin Neutralization, % neutralization","[3]; 5.0 × 10^−6 M Peptide, 0.02 U (0.2 pg) endotoxin from E. coli 055:B5, Table 4",0%
same,"Endotoxin Neutralization, % at the effective dose","[3]; Table 3, at the ED printed in the same cell",23%
same,"Endotoxin neutralization, ED, Effective M dose","[3]; Table 3, dose at which the % in brackets was found",50 µM
same,"Endotoxin Neutralization, % at the effective dose","[3]; Table 4, at the Ed",0%
same,"Endotoxin Neutralization, Ed, Effective M dose","[3]; Table 4, dose at which the % in brackets was found",50 µM
same,(3H)-thymidine incorporation,"[4]; expt 1, 1 μg/ml, 10 ng/ml bFGF, medium 28815 ± 1007",28782 ± 815 cpm
same,(3H)-thymidine incorporation,"[4]; expt 1, 1 μg/ml, no bFGF, medium 4044 ± 206",4656 ± 456 cpm
same,(3H)-thymidine incorporation,"[4]; expt 1, 10 μg/ml, 10 ng/ml bFGF, medium 28815 ± 1007",23868 ± 402 cpm
same,(3H)-thymidine incorporation,"[4]; expt 1, 10 μg/ml, no bFGF, medium 4044 ± 206",4066 ± 351 cpm
same,(3H)-thymidine incorporation,"[4]; expt 1, 100 μg/ml, 10 ng/ml bFGF, medium 28815 ± 1007",4655 ± 421 cpm
same,(3H)-thymidine incorporation,"[4]; expt 1, 100 μg/ml, no bFGF, medium 4044 ± 206",1651 ± 172 cpm
same,(3H)-thymidine incorporation,"[4]; expt 2 (second, r19), 1 μg/ml, 10 ng/ml bFGF, medium 52808 ± 4092",43524 ± 5318 cpm
same,(3H)-thymidine incorporation,"[4]; expt 2 (second, r19), 1 μg/ml, no bFGF, medium 6780 ± 713",6171 ± 1227 cpm
same,(3H)-thymidine incorporation,"[4]; expt 2 (second, r19), 10 μg/ml, 10 ng/ml bFGF, medium 52808 ± 4092",8337 ± 704 cpm
same,(3H)-thymidine incorporation,"[4]; expt 2 (second, r19), 10 μg/ml, no bFGF, medium 6780 ± 713",3547 ± 317 cpm
same,(3H)-thymidine incorporation,"[4]; expt 2 (second, r19), 100 μg/ml, 10 ng/ml bFGF, medium 52808 ± 4092",1654 ± 375 cpm
same,(3H)-thymidine incorporation,"[4]; expt 2 (second, r19), 100 μg/ml, no bFGF, medium 6780 ± 713",947 ± 170 cpm
